Where “and” joins values, the source holds several entries; their conditions need not be identical. Equal entries are not always repeated.
How the values were obtained:
[1] = system: 5-alpha-reductase enzyme; settings: constituents of Ageratum spp. extracts; no test described; cited from earlier work
[2] = system: bovine corneas; experiment: Bovine Corneal Opacity and Permeability assay (ocular irritation)
Description: SUMMARY: This test was designed to assess the ocular irritation potential of a non-surfactant, liquid article such as Ageratum conyzoides extract. The test is a modification of that described by Gautheron, et. al. (“Bovine Corneal Opacity and Permeability Test: An In Vitro Assay of Ocular Irritancy” Fund. Appl. Toxicol. 18:442-449 (1992)), and Vanparys, et al. (“Evaluation of the bovine opacity-permeability assay as an in vitro alternative to the Draize eye irritation test” Toxicol. In Vitro 7:471-76 (1994)).
Bovine eyes were obtained by this facility from a local abattoir. The eyes were transported in an appropriate container containing Hank's balanced salt solution (HBSS, Sigma Chemical Co., H-1387). Transportation and storage of the eyes was at approximately 21° C. (70° F.). The eyes were used the day of their harvest and transport.
Upon test initiation, the iris and the lens were removed and the corneas were placed in the bovine cornea holders. The endothelial surface was applied to the O-ring of the posterior part of the holder. The anterior part of the holder was placed against the epithelial side of the cornea. The two sides of the holder were screwed together. The bovine holders' components were then filled with pre-warmed Eagle's Minimum Essential Media (EM EM, Sigma Chemical Co., M-3024) with 1% Fetal Bovine Serum (FBS, American Type Culture Collection) at approximately 32° C.±2° C. (90° F.±4° F.). The posterior chamber was filled first. The corneas were incubated for approximately one hour, in a 32° C.±2° C. (90° F.±4° F.) water bath. This allowed for the pre-equilibration of the corneas to the external medium.
After the pre-equilibration period, media from both of the chamber of the cassettes was aspirated, with the anterior chamber being aspirated first. Each chamber was then refilled with fresh EMEM, with the posterior chamber being filled first. Initial opacity readings were taken and recorded. Corneas with initial readings greater than […] were not used. Three corneas were assigned to each test and control article. The corneas with the lowest readings were used as the negative controls.
The test article and the positive control article (ethanol) and the negative control article (physiological saline) were each tested at 100%.
A volume of 0.75 milliliters of the appropriate article, pre-warmed to 32° C.±2° C. (90° F.±4° F.), was introduced into the anterior chamber of the appropriate cassettes. The anterior chambers were then plugged and turned to a horizontal position. They were then rotated slightly, so that the article uniformly covered each cornea. The cassettes were incubated for 10 minutes at 32° C.±2° C. (90° F.±4° F.), in a water bath.
The anterior chambers of each cassette were then refilled with fresh EMEM via syringe. After refilling, the chambers were again plugged. All corneas were then incubated for 2 hours at approximately 32° C.±2° C. (90° F.±4° F.), in a water bath.
After this 2 hour incubation period, all compartments were emptied and refilled with fresh EMEM. Each holder was individually placed in the “positive” compartment, while the “negative” compartment was left empty. The glass portion of each holder was dried prior to the reading. The opacity of each cornea was taken and recorded. The corneas were also observed grossly. Any unusual findings, such as opaque spots, were recorded.
After the opacity readings were completed, the medium was removed from the anterior chambers. Either a suitable pipette tip or a flat ended needle was used for this procedure. One milliliter of 6 mg/ml fluorescein (Sodium Fluorescein, Sigma-Aldrich, F-637 in Dulbecco's Phosphate Buffered Saline (DPBS Sigma-Aldrich) pH approximately 7.5) solution was added to each of the anterior chambers. A micro pipette was used for this procedure.
After the fluorescein solution was added to each anterior compartment, the compartments were plugged. The cassettes were then incubated, in a horizontal position, for 90 minutes at 32° C.±2° C.

[3] = individual cornea, negative control average subtracted
[4] = mean of three corneas, article at 100%

O=C1CCc2ccccc2O1 [Hydrocoumarin]
identified as 5-alpha-reductase inhibitor [1]: 5-alpha-reductase inhibitors

CCCCC/C=C\C/C=C\CCCCCCCC(=O)O [9,12-octadecadienoic acid (Z,Z)-]
identified as 5-alpha-reductase inhibitor [1]: 5-alpha-reductase inhibitors

CCCCCCCCCCCCCCCC(=O)O [Hexadecanoic acid]
identified as 5-alpha-reductase inhibitor [1]: 5-alpha-reductase inhibitors

CC/C=C\C/C=C\C/C=C\CCCCCCCC(=O)O [Alpha-linolenic acid]
identified as 5-alpha-reductase inhibitor [1]: 5-alpha-reductase inhibitors

CCO [+Control, Ethanol]
Difference (terminal minus initial opacity) ([2]; individual cornea, article at 100%): 51 and 45 and 54
Terminal Opacity ([2]; individual cornea, article at 100%, 10 minute exposure, 2 hour incubation): 56 and 46 and 55
Initial Opacity ([2]; individual cornea, baseline reading before exposure): 2 and 1 (2×)
Optical Density490 ([2]; individual cornea, fluorescein permeability, 90 minutes): 1.239 and 0.662 and 1.663
Corrected Corneal Opacity [2, 3]: 48.3 and 42.3 and 51.3
Corrected OD490 [2, 3]: 1.233 and 0.656 and 1.657
In Vitro Score ([2]; individual cornea, Corrected Corneal Opacity + 15 x Corrected OD490): 65.8 and 52.5 and 76.2
Mean Corrected OD490 ([2]; mean of three corneas): 1.182
Average In Vitro Score [2, 4]: 65.0
Mean Corrected Corneal Opacity [2, 4]: 47.3

— US11357809B2, “Herbal preparation for stimulation of hair growth, control of hair fall, dandruff and infections thereof using Ageratum spp” (GE Nutrients, Inc., priority 2019, dated 2022)
